Laboratory results reported in PMC9136116, “The activity of the serotonergic 5-HT1A receptor is modulated by voltage and sodium levels” (The Journal of Biological Chemistry, 2022).
Read-outs that look alike come from different tables or passages of the source.

Legend:
5-HT1A receptor [1] = target: T1, 5-HT1A receptor (Homo sapiens, UniProt P08908); details: for voltage dependence of potency: −80 mV versus +40 mV
T1 sequence (P08908 1-422): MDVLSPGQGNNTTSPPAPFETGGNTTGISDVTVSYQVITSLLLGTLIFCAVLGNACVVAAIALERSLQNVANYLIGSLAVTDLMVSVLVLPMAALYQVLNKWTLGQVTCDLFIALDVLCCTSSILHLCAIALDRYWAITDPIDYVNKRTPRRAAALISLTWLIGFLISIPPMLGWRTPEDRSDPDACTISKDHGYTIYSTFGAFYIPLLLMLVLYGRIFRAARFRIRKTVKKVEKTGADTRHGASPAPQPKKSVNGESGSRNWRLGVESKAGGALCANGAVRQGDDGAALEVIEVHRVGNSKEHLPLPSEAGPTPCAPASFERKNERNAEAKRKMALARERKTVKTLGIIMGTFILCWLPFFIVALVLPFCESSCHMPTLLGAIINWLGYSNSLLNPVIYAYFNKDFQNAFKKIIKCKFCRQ

5-HT1A receptor [2] = target: T1, 5-HT1A receptor; experiment: cell-based; set-up: Emax: dose or concentration left out as unconfirmed; details: for EC50: EC50 (activation of receptor-mediated GIRK current), wt receptor, 72 mM Na+ solution

effect of removal of extracellular Na+ on maximal I5-HT (5-HT1A receptor [1]; 5 μM 5-HT, Na+-free versus 72 mM Na+) | decrease of potency by depolarization (5-HT1A receptor [1]; +40 mV versus −80 mV, 72 mM Na+) | Emax (5-HT1A receptor [2]; read-out: maximal response relative to the maximal response produced by 5-HT) [%] | voltage dependence of potency (5-HT1A receptor [1]) | EC50 (5-HT1A receptor [2]; holding potential +40 mV) [µM] | EC50 (5-HT1A receptor [2]; holding potential −80 mV) [µM] | Emax (5-HT1A receptor [2]; read-out: maximal response relative to the maximal response evoked by 5-HT at the same oocytes) [%] | SMILES
did not affect the maximal current | more than 20 fold |  |  |  |  |  | NCCc1c[nH]c2ccc(O)cc12 [5-HT, 5-hydroxytryptamine]
 |  | ~42 | not voltage dependent |  |  |  | O=C1CC2(CCCC2)CC(=O)N1CCCCN1CCN(c2ncccn2)CC1 [buspirone]
 |  |  | voltage-dependent | 0.938 | 0.194 | ~55 | O=C1[C@@H]2[C@H]3CC[C@H](C3)[C@@H]2C(=O)N1CCCCN1CCN(c2ncccn2)CC1 [tandospirone]
